Earlier results on one compound are cited in US11446277B2, “Penetrating pain relief cream” (priority 2019, dated 2022).

Data set [1] has as its system bacteria.
Data set [2] concerns aggressive human breast cancer cells. As to conditions: in vitro.

With `C=C(C)[C@@H]1CCC(C)=C[C@H]1c1c(O)cc(CCCCC)cc1O` [CBD, Cannabidiol], the growth of bacteria entry in data set [1] was “inhibit the growth of bacteria”. Moreover, in data set [2], the “growth of aggressive human breast cancer cells” value was “reduce growth” and the “invasiveness of aggressive human breast cancer cells” value is “reduce their invasiveness”. Where the note is “animal studies”, the analgesic properties result is given as “analgesic properties” and the anti-inflammatory activity entry is recorded as “anti-inflammatory activity”. Moreover, for the setting “animal tests”, the sedation result is listed as “sedative effects”.
